Target: Aβ1-42 (Homo sapiens, UniProt P05067)
Assay: FRET assay of Aβ1-42 oligomer (ADDL) assembly inhibition
Type: biochemical
Settings: 0.2 μM FITC-Aβ(1-42) and 0.8 μM Aβ(1-42), 37° C., six concentrations from about 10 μM to about 0.03 μM
Excerpt: Fluorescence (or Förster) Resonance Energy Transfer (FRET) is a distance-dependent, non-radiative transfer of energy in which the de-excitation of one fluorophore (donor) is coupled to excitation of another fluorophore (acceptor). FRET occurs if (1) the quantum of energy emitted by a donor fluorophore corresponds to an acceptor fluorophore's excitation energy, (2) the orientations of donor and acceptor transition dipoles are nearly parallel and (3) the donor fluorescent emission spectrum overlaps the acceptor absorption spectrum.
In this assay, assembly of Aβ1-42 oligomer formation is monitored by FRET using N-terminal conjugates of fluorescein-Aβ1-42 as both the donor and acceptor fluorophore (fluorescein-fluorescein Ro˜45 Å). […] Inhibition of Aβ1-42 assembly is observed as the absence or attenuation of fluorescein quenching.
FRET and FP assays are performed in 384-well Corning Non-Binding Surface, black, opaque microtiter plates, and the assay buffer consists of 25 mM MOPS-Tris (pH 8.0) with 100 mM MgCl2. The assay volume, containing 0.2 μM FITC-Aβ(1-42) and 0.8 μM Aβ(1-42), is 50 μl and the temperature is 37° C. […] Kinetic traces are collected by recording fluorescence intensity and polarization readings every five minutes over about a three hour time course. […] Positive control reactions contain all buffer components in the absence of added small molecule or antibody reagents. To test for ADDL assembly inhibition, the compound was incubated with the peptide mixture at six concentrations from about 10 μM decreasing to about 0.03 μM.

Chain of Aβ1-42 (P05067 672-713 limits assumed): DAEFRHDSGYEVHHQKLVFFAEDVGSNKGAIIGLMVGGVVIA

| Structure (SMILES) | IC50 [µM] |
| --- | --- |
| Cc1ccc(C(=O)C/C(=N/NC(=O)c2sc3cc(F)ccc3c2Cl)C(F)(F)F)s1 [Compound 10, 3-chloro-6-fluoro-N′-(1,1,1-trifluoro-4-(5-methylthiophen-2-yl)-4-oxobutan-2-ylidene)benzo[b]thiophene-2-carbohydrazide] | 8.3 |
| O=C(C/C(=N/NC(=O)c1sc2cc(F)ccc2c1Cl)C(F)(F)F)c1cc2ccccc2s1 [Compound 17, N′-(4-(benzo[b]thiophen-2-yl)-1,1,1-trifluoro-4-oxobutan-2-ylidene)-3-chloro-6-fluorobenzo[b] thiophene-2-carbohydrazide] | 10.2 |
| Cc1ccc(O)c(/C=N/NC(=O)c2ccccc2O)c1 [Compound 68, 2-hydroxy-N′-(2-hydroxy-5-methyl-benzylidene)benzohydrazide] | 9.2 |
| CCN(CC)c1ccc(/C=N/NC(=O)c2ccccc2O)c(O)c1 [Compound 80, N'-(4-(diethylamino)-2-hydroxy-benzylidene)-2-hydroxy-benzohydrazide] | 14.4 |
| O=C(N/N=C/c1c(O)cccc1Br)c1ccccc1O [Compound 45, N′-(2-bromo-6-hydroxybenzylidene)-2-hydroxybenzo-hydrazide] | 3.3 |
| O=C(C/C(=N/NC(=O)c1ccccc1NS(=O)(=O)c1ccc(Cl)cc1)C(F)(F)F)c1cccs1 [Compound 16, 4-chloro-N-(2-(2-(1,1,1-trifluoro-4-oxo-4-(thiophen-2-yl)butan-2-ylidene) hydrazinecarbonyl)phenyl)benzenesulfonamide] | 9.7 |
| COc1ccc(O)c(/C=N/NC(=O)c2cccc3cc[nH]c23)c1 [Compound 58, N′-(2-hydroxy-5-methoxy-benzylidene)-1H-indole-7-carbohydrazide] | 6.4 |
| Cc1ccc(C(=O)N/N=C/c2cccc(C)c2O)cn1 [Compound 53, N′-(2-hydroxy-3-methyl-benzylidene)-6-methylnicotino-hydrazide] | 4.6 |
| COc1ccc(O)c(/C=N/NC(=O)c2[nH]c3ccccc3c2Cl)c1 [Compound 44, 3-chloro-N′-(2-hydroxy-5-methoxybenzylidene)-1H-indole-2-carbohydrazide] | 3.2 |
| COc1ccc(O)c(/C=N/NC(=O)c2cc(-c3ccc(Cl)s3)n[nH]2)c1 [Compound 107, 3-(5-chlorothiophen-2-yl)-N′-(2-hydroxy-5-methoxybenzylidene)-1H-pyrazole-5-carbohydrazide] | 40.1 |
| COc1ccc(O)c(/C=N/NC(=O)c2ccccc2N)c1 [Compound 110, 2-amino-N′-(2-hydroxy-5-methoxybenzylidene)benzohydrazide] | 42.3 |
| CCOC(=O)c1c(C)oc2cc(Br)c(O)c(/C=N/NC(=O)c3ccccc3O)c12 [Compound 77, ethyl 6-bromo-5-hydroxy-4-((2-(2-hydroxybenzoyl)hydrazono)methyl)-2-methyl-benzofuran-3-carboxylate] | 11.6 |
| COc1ccc(O)c(/C=N/NC(=O)c2ccccc2NS(C)(=O)=O)c1 [Compound 100, N-(2-(2-(2-hydroxy-5-methoxybenzylidene)hydrazinecarbonyl)phenyl)methanesulfonamide] | 33.2 |
| COc1cccc(O)c1/C=N/NC(=O)c1ccccc1O [Compound 55, 2-hydroxy-N′-(2-hydroxy-6-methoxy-benzylidene)benzohydrazide] | 5.3 |
| CC(C)(C)C(=O)C/C(=N/NC(=O)c1sc2cc(F)ccc2c1Cl)C(F)(F)F [Compound 12, 3-chloro-6-fluoro-N′-(1,1,1-trifluoro-5,5-dimethyl-4-oxohexan-2-ylidene)benzo[b]thiophene-2-carbohydrazide] | 8.6 |
| O=C(N/N=C/c1c(O)ccc2ccccc12)c1sc2cc(F)ccc2c1Cl [Compound 61, 3-chloro-6-fluoro-N′-((2-hydroxynaphthalen-1-yl)methylene) benzo[b]thiophene-2-carbohydrazide] | 6.7 |
| O=C(C/C(=N\NC(=O)c1sc2cc(F)ccc2c1Cl)C(F)(F)F)c1ccco1 [Compound 31, 3-chloro-6-fluoro-N′-(1,1,1-trifluoro-4-(furan-2-yl)-4-oxobulan-2-ylidene)benzo[b]thiophene-2-carbohydrazide] | 30.2 |
| O=C(N/N=C/c1cc(OC(F)(F)F)ccc1O)c1ccccc1O [Compound 57, 2-hydroxy-N′-(2-hydroxy-5-(trifluoro-methoxy)benzylidene)benzohydrazide] | 6.3 |
| O=C(C/C(=N/NC(=O)c1c(F)cccc1F)C(F)(F)F)c1cccs1 [Compound 35, 2,6-difluoro-N′-(1,1,1-trifluoro-4-oxo-4-(thiophen-2-yl)butan-2-ylidene)benzohydrazide] | 41.2 |
| O=C(C/C(=N/NC(=O)c1cnn(-c2ccccc2)c1C(F)(F)F)C(F)(F)F)c1cccs1 [Compound 34, 1-phenyl-N′-(1,1,1-trifluoro-4-oxo-4-(thiophen-2-yl)butan-2-ylidene)-5-(trifluoromethyl)-1H-pyrazole-4-carbohydrazide] | 40.9 |

| Structure (SMILES) | IC50 [µM] |
| --- | --- |
| COc1ccc(O)c(/C=N/NC(=O)c2ccccc2O)c1 [Compound 83, 2-hydroxy-N′-(2-hydroxy-5-methoxy-benzylidene)benzohydrazide] | 15.4 |
| Nc1ccc(Cl)cc1/C=N/NC(=O)c1ccccc1O [Compound 65, N′-(2-amino-5-chloro-benzylidene)-2-hydroxy-benzohydrazide] | 7.5 |
| Cc1csc(C(=O)N/N=C(/CC(=O)c2cccs2)C(F)(F)F)c1Cl [Compound 21, 3-chloro-4-methyl-N′-(1,1,1-trifluoro-4-oxo-4-(thiophen-2-yl)butan-2-ylidene)thiophene-2-carbohydrazide] | 12.5 |
| Cc1csc(C(=O)N/N=C/c2cc(Cl)ccc2O)c1Cl [Compound 92, 3-chloro-N′-(5-chloro-2-hydroxybenzylidene)-4-methylthiophene-2-carbohydrazide] | 23.7 |
| O=C(N/N=C/c1ccc(O)cc1O)c1ccccc1O [Compound 90, N′-(2,4-dihydroxybenzylidene)-2-hydroxy-benzohydrazide] | 21.4 |
| O=C(N/N=C/c1c(O)ccc2ccccc12)c1ccc(O)cc1O [Compound 115, 2,4-dihydroxy-N′-((2-hydroxynaphthalen-1-yl)methylene)benzohydrazide] | 47.6 |
| COc1ccc(O)c(/C=N/NC(=O)c2c(O)cccc2F)c1 [Compound 95, 2-fluoro-6-hydroxy-N′-(2-hydroxy-5-methoxybenzylidene)benzohydrazide] | 26.2 |
| O=C(C/C(=N/NC(=O)c1sc2cc(F)ccc2c1Cl)C(F)(F)F)c1cccs1 [Compound 24, 3-chloro-6-fluoro-N′-(1,1,1-trifluoro-4-oxo-4-(thiophen-2-yl)butan-2-ylidene)benzo[b]thiophene-2-carbohydrazide] | 16.1 |
| O=C(N/N=C/c1cc(Cl)cc(Br)c1O)c1ccccc1O [Compound 108, N′-(3-bromo-5-chloro-2-hydroxybenzylidene)-2-hydroxybenzohydrazide] | 41.7 |
| COc1ccc(O)c(/C=N/NC(=O)c2cc(OC)ccc2O)c1 [Compound 82, 2-hydroxy-N′-(2-hydroxy-5-methoxy-benzylidene)-5-methoxy-benzohydrazide] | 15.1 |
| O=C(N/N=C/c1cc([N+](=O)[O-])ccc1O)c1ccccc1O [Compound 99, 2-hydroxy-N′-(2-hydroxy-5-nitrobenzylidene)benzohydrazide] | 32.5 |
| COc1cc(Br)c(O)c(/C=N/NC(=O)c2ccccc2O)c1 [Compound 109, N′-(3-bromo-2-hydroxy-5-methoxybenzylidene)-2-hydroxybenzohydrazide] | 42 |
| O=C(N/N=C/c1cc(Br)cc(Br)c1O)c1ccccc1O [Compound 42, N′-(3,5-dibromo-2-hydroxybenzylidene)-2-hydroxybenzohydrazide] | 2.8 |
| Cc1nnsc1C(=O)N/N=C(/CC(=O)c1cccs1)C(F)(F)F [Compound 11, 4-methyl-N′-(1,1,1-trifluoro-4-oxo-4-(thiophen-2-yl)butan-2-ylidene)-1,2,3-thiadiazole-5-carbohydrazide] | 8.4 |
| O=C(N/N=C/c1cc(Br)ccc1O)c1ccccc1O [Compound 50, N′-(5-bromo-2-hydroxy-benzylidene)-2-hydroxybenzohydrazide] | 4.1 |
| O=C(N/N=C/c1c(O)ccc2ccccc12)c1ccccc1NS(=O)(=O)c1ccc(Cl)cc1 [Compound 43, 4-chloro-N-(2-(2-((2-hydroxynaphthalen-1-yl)methylene)hydrazinecarbonyl)phenyl) benzenesulfonamide] | 3.2 |
| COc1ccc(O)c(/C=N/NC(=O)c2ccc(-n3cccc3)cc2O)c1 [Compound 36, 2-hydroxy-N′-(2-hydroxy-5-methoxy-benzylidene)-4-(1H-pyrrol-1-yl) benzohydrazide] | 1 |
| Cc1cc(C(=O)N/N=C/c2c(O)ccc3ccccc23)[nH]n1 [Compound 97, N′-((2-hydroxynaphthalen-1-yl)methylene)-3-methyl-1H-pyrazole-5-carbohydrazide] | 30.6 |
| O=C(N/N=C(/CC(=O)N1CCOCC1)C(F)(F)F)c1ccccc1O [Compound 18, 2-hydroxy-N′-(1,1,1-trifluoro-4-morpholino-4-oxobutan-2-ylidene)benzohydrazide] | 10.4 |
